The test has as its system Plasmodium berghei. The test can be described thus: Luciferase/luciferin-expressing antifolate-resistant parasites were used to infect a culture of HepG2 cells that were pre-incubated with compounds. Infected hepatocytes emit light due to the luciferase reaction. Assay results are presented as the percent inhibition of light emission compared to control. […]. Format: functional. The following applies: sporozoite; for IC90: read-out: LUCIFERASE INFECTION ASSAY - IC90.

The mark [1] stands for this setting: read-out: LUCIFERASE INFECTION ASSAY - IC50.

Consider 37 compounds from ChEMBL document CHEMBL4483862, “Open-source discovery of chemical leads for next-generation chemoprotective antimalarials” (2018).

As a reminder, the IC50 is the concentration that inhibits the measured activity by half. In general, IC90 refers to the concentration needed for an effect of 90%. With `Nc1nc(N)nc(COC(=O)c2c3c(nc4ccccc24)/C(=C/c2c(F)cccc2Cl)CC3)n1`, the IC90 is more than 10 µM. Also, the IC50 (HEPG2TOX_HILL_SLOPE 0.332, HEPG2TOX_R_SQUARED 0.762, PBLUC_HILL_SLOPE 7.86, PBLUC_R_SQUARED 0.0482, read-out: LUCIFERASE INFECTION ASSAY - IC50) was more than 10 µM.
On to `Cc1ccc(C(CN2CCOCC2)Nc2nc(C(F)(F)F)nc3ccccc23)cc1` (centres undefined), for which the IC90 was determined as 3.63 µM. Further, the IC50 (FFLUC_HILL_SLOPE 0.43, FFLUC_R_SQUARED 0.0433, PBLUC_HILL_SLOPE 12.3, PBLUC_R_SQUARED 0.751, read-out: LUCIFERASE INFECTION ASSAY - IC50) came out at 3.04 µM.
For the compound `Cn1c2c(cc(-c3ccccc3)c1=O)CN(Cc1cnn(-c3ccc(F)cc3)c1)CC2`, the IC90 is more than 7.96 µM. The IC50 (HEPG2TOX_HILL_SLOPE 7.96, HEPG2TOX_R_SQUARED 0.425, PBLUC_HILL_SLOPE 14.6, PBLUC_R_SQUARED 0.0729, read-out: LUCIFERASE INFECTION ASSAY - IC50) turned out to be 7.11 µM.
Take `O=c1ccn(-c2ccc(Cl)cc2)nc1-c1ccnc(-c2ccccc2)n1`: the IC90 was more than 9.15 µM. Under setting [1], the IC50 is more than 9.15 µM.
For `CC1(C)CCc2cc(/C=N/C(C#N)C(=N)C#N)ccc2O1` (centres undefined), the IC90 was more than 11.8 µM. Besides, the IC50 (FFLUC_HILL_SLOPE 1.61, FFLUC_R_SQUARED 0.207, read-out: LUCIFERASE INFECTION ASSAY - IC50) is more than 11.8 µM.
As for `C[C@]12CC[C@@H]3c4ccc(O)cc4CC[C@H]3[C@@H]1CC[C@@H]2O` [ESTRADIOL], the IC90 is 9.85 µM. Further, the IC50 under setting [1] was 5.43 µM.
For the compound `COc1ccc(-c2nc(CN(c3ccccc3)S(=O)(=O)c3ccccc3)co2)cc1`, the IC90 is more than 10 µM. In addition, the IC50 (PBLUC_HILL_SLOPE 12.4, PBLUC_R_SQUARED 0.25, read-out: LUCIFERASE INFECTION ASSAY - IC50) was more than 10 µM.
In the case of `Cc1ccc(C2=NNC(=Nc3cccc(S(=O)(=O)N(C)C)c3)SC2)cc1`, the IC90 was 4.33 µM. Also, under setting [1], the IC50 was 3.5 µM.
Regarding `N#C/C(=N\Nc1cccc(Cl)c1)C(=O)c1cc(-c2ccccc2)c(C(F)(F)F)s1`, the IC90 stood at 1.5 µM. Moreover, the IC50 (HEPG2TOX_HILL_SLOPE 1.47, HEPG2TOX_R_SQUARED 0.986, PBLUC_HILL_SLOPE 2.41, PBLUC_R_SQUARED 0.872, read-out: LUCIFERASE INFECTION ASSAY - IC50) turned out to be 0.605 µM.
Regarding `Cc1cc2occ(CC(=O)Nc3ccc(N4CCN(C)CC4)nc3)c2cc1C(C)C`, the IC90 is more than 10 µM. Besides, the IC50 under setting [1] is 9.57 µM.
Regarding `N#C/C(=C\Nc1cc(C(F)(F)F)cc(C(F)(F)F)c1)S(=O)(=O)c1ccc(OC(F)(F)F)cc1`, the IC90 is more than 6.54 µM. Moreover, under “PBLUC_HILL_SLOPE 4.15, PBLUC_R_SQUARED 0.029, read-out: LUCIFERASE INFECTION ASSAY - IC50”, the IC50 is more than 6.54 µM.
For the compound `CC(C)(C)c1ccccc1NC(=O)Nc1nc(C(N)CCc2ccccc2)cs1` (centres undefined), the IC90 was found to be 8 µM. Moreover, under “PBLUC_HILL_SLOPE 12.3, PBLUC_R_SQUARED 0.125, read-out: LUCIFERASE INFECTION ASSAY - IC50”, the IC50 is 6.69 µM.
`Cc1c(NC(=O)c2cccc(Nc3nc(-c4cccs4)nc4ccccc34)c2)c(=O)n(-c2ccccc2)n1C`: the IC90 was more than 10 µM. Further, under setting [1], the IC50 was found to be 9.1 µM.
Turning to `CC(=O)N1N=C(c2ccccc2O)CC1c1c(F)cccc1Cl` (centres undefined), the IC90 amounted to 9.88 µM. The IC50 (HEPG2TOX_HILL_SLOPE 8.22, HEPG2TOX_R_SQUARED 0.351, PBLUC_HILL_SLOPE 15.6, PBLUC_R_SQUARED 0.178, read-out: LUCIFERASE INFECTION ASSAY - IC50) was 8.59 µM.
For the compound `Cc1ccnc(NC(c2ccccn2)c2ccc3ccc(C)nc3c2O)c1` (centres undefined), the IC90 was more than 9.26 µM. The IC50 (HEPG2TOX_HILL_SLOPE 1.81, HEPG2TOX_R_SQUARED 0.956, PBLUC_HILL_SLOPE 14.5, PBLUC_R_SQUARED 0.453, read-out: LUCIFERASE INFECTION ASSAY - IC50) amounted to 8.04 µM.
As for `O=C(/C=C/c1ccc(N2CCCCC2)c([N+](=O)[O-])c1)c1ccc(O)cc1`, the IC90 is more than 10 µM. In addition, the IC50 under setting [1] came out at 9.61 µM.
On the same counts, the results for `O=C1OC(C23CC4CC(CC(C4)C2)C3)=N/C1=C\c1ccc(N2CCOCC2)cc1` are more than 10 µM and more than 10 µM.
On the same counts, the results for `O=C(CN1c2cccc3cccc(c23)S1(=O)=O)N1CCN(C(=O)c2ccco2)CC1` are more than 10 µM and more than 10 µM.
On the same counts, the results for `O=C(CCCNC(=O)c1ccsc1)Nc1ccc(OC(F)(F)F)cc1` are more than 10 µM and more than 10 µM.
As to `CSCc1nc(=O)c2c(C)c(C(=O)NN3C(=O)NC(C)(c4ccccc4)C3=O)sc2[nH]1` (centres undefined), the IC90 was more than 10 µM. Further, under setting [1], the IC50 is more than 10 µM.
In the case of `Cc1cc(-c2nc(=O)c3ccccc3[nH]2)c(C)n1CC(C)C`, the IC90 was 4.1 µM. Besides, the IC50 (PBLUC_HILL_SLOPE 3.39, PBLUC_R_SQUARED 0.354, read-out: LUCIFERASE INFECTION ASSAY - IC50) turned out to be 2.15 µM.
Turning to `CCc1ccc(C2NC(=O)NC(C)=C2C(=O)c2ccccc2)cc1` (centres undefined), the IC90 is more than 10 µM. The IC50 under setting [1] was more than 10 µM.
Take `Cc1cccc(C)c1Nc1nnc(C(O)c2ccc(F)c(Cl)c2)s1` (centres undefined): the IC90 was more than 10 µM. Further, the IC50 (PBLUC_HILL_SLOPE 1.46, PBLUC_R_SQUARED 0.342, read-out: LUCIFERASE INFECTION ASSAY - IC50) was determined as 2.96 µM.
`O=C(Cn1ncc(Cl)c(Cl)c1=O)Nc1cccc(Oc2ccccc2)c1`: the IC90 is more than 10 µM. The IC50 (FFLUC_HILL_SLOPE 8.65, FFLUC_R_SQUARED 0.47, PBLUC_HILL_SLOPE 2.15, PBLUC_R_SQUARED 0.511, read-out: LUCIFERASE INFECTION ASSAY - IC50) was 6.79 µM.
On to `N#Cc1cccc(CSc2nc(NC3CC3)c3ccccc3n2)c1`, for which the IC90 was more than 10 µM. Under “HEPG2TOX_HILL_SLOPE 0.422, HEPG2TOX_R_SQUARED 0.349, read-out: LUCIFERASE INFECTION ASSAY - IC50”, the half-maximal inhibitory concentration (IC50) is more than 10 µM.
Turning to `c1ccc2[nH]c(CN3CCN(Cc4csc5ccccc45)CC3)nc2c1`, the IC90 was more than 10 µM. Further, the IC50 (PBLUC_HILL_SLOPE 5.23, 12.9, PBLUC_R_SQUARED 0.488, 0.411, read-out: LUCIFERASE INFECTION ASSAY - IC50) turned out to be 9.2 µM.
On to `O=[N+]([O-])c1cnc(Sc2nnc(O)n2-c2ccc(OCc3ccccc3)cc2)s1`, for which the IC90 was more than 7.72 µM. Moreover, the IC50 under setting [1] stood at 3.81 µM.
On to `O=[N+]([O-])c1ccccc1Sc1sc2ncnc(N/N=C/c3cccs3)c2c1-c1ccccc1`, for which the concentration for an effect of 90% (IC90) came out at 1.17 µM. Further, the IC50 (FFLUC_HILL_SLOPE 2.47, FFLUC_R_SQUARED 0.702, HEPG2TOX_HILL_SLOPE 1.48, HEPG2TOX_R_SQUARED 0.963, PBLUC_HILL_SLOPE 5.47, PBLUC_R_SQUARED 0.841, read-out: LUCIFERASE INFECTION ASSAY - IC50) was 0.785 µM.
Consider `CN1CCN(c2ccccc2NC(=O)c2cccc(Oc3ccccc3)c2)CC1`, for which the IC90 was determined as 5.25 µM. The IC50 (PBLUC_HILL_SLOPE 1.09, PBLUC_R_SQUARED 0.715, read-out: LUCIFERASE INFECTION ASSAY - IC50) amounted to 0.704 µM.
For the compound `O=c1c(Cl)c(Cl)cnn1Cc1nc2cc(Cl)ccc2n1Cc1ccccc1`, the IC90 was more than 10 µM. Moreover, the IC50 (FFLUC_HILL_SLOPE 21.9, FFLUC_R_SQUARED 0.587, HEPG2TOX_HILL_SLOPE 12.6, HEPG2TOX_R_SQUARED 0.77, read-out: LUCIFERASE INFECTION ASSAY - IC50) is more than 10 µM.
In the case of `CC(C)(C)NC(=S)N/N=C/c1cc(Cl)cc(Cl)c1O`, the IC90 stood at 6.66 µM. The IC50 (HEPG2TOX_HILL_SLOPE 1.14, HEPG2TOX_R_SQUARED 0.984, PBLUC_HILL_SLOPE 2.14, PBLUC_R_SQUARED 0.291, read-out: LUCIFERASE INFECTION ASSAY - IC50) was 2.39 µM.
With `CCCn1c(C)cc(C(=O)CN(C)S(=O)(=O)c2ccc(Cl)cc2)c1C`, the concentration for an effect of 90% (IC90) was more than 10 µM. Moreover, the IC50 (HEPG2TOX_HILL_SLOPE 3.32, HEPG2TOX_R_SQUARED 0.751, PBLUC_HILL_SLOPE 15.5, PBLUC_R_SQUARED 0.301, read-out: LUCIFERASE INFECTION ASSAY - IC50) is 9.26 µM.
In the case of `COc1cc2c(cc1OC)CN(CCNc1ncnc3sccc13)CC2`, the IC90 was more than 10 µM. Where the note is “HEPG2TOX_HILL_SLOPE 2.69, HEPG2TOX_R_SQUARED 0.552, PBLUC_HILL_SLOPE 1.83, PBLUC_R_SQUARED 0.419, read-out: LUCIFERASE INFECTION ASSAY - IC50”, the IC50 is 3.93 µM.
In the case of `CCc1cccc(NC(=O)C[n+]2c3n(c4ccc(C(F)(F)F)cc42)CCCCC3)c1`, the IC90 was 8.61 µM. Further, the IC50 under setting [1] amounted to 2.8 µM.
For the compound `Cc1cc(C(=O)COC(=O)c2ccccc2O)c(C)n1CC1CCCO1` (centres undefined), the IC90 came to 7.71 µM. For the same compound, for the setting “PBLUC_HILL_SLOPE 2.39, PBLUC_R_SQUARED 0.567, read-out: LUCIFERASE INFECTION ASSAY - IC50”, the IC50 was 3.08 µM.
Turning to `CCCc1cc(=O)n2ncc(-c3ccccc3)c2[nH]1`, the concentration for an effect of 90% (IC90) was 12.2 µM. Moreover, the IC50 (HEPG2TOX_HILL_SLOPE 0.383, HEPG2TOX_R_SQUARED 0.727, PBLUC_HILL_SLOPE 12.3, PBLUC_R_SQUARED 0.782, read-out: LUCIFERASE INFECTION ASSAY - IC50) was determined as 10.2 µM.
Take `Cc1nc(C(F)(F)F)nc(NCc2ccc(Cl)cc2)c1C`: the IC90 was more than 10.5 µM. Under “PBLUC_HILL_SLOPE 1.61, PBLUC_R_SQUARED 0.626, read-out: LUCIFERASE INFECTION ASSAY - IC50”, the IC50 is 3.42 µM.
